Holding throughout (assay type): cell-based
In experiment [1] the test system is P. aeruginosa CDC-0090. The experiment can be described thus: microbe, parasite or virus in culture. As to conditions: Pseudomonas aeruginosa, CDC0090, read-out: Minimum inhibitory concentration, P. aeruginosa CDC-0090.
Experiment [2] deals with B. pseudomallei Bp82. The experiment can be described thus: microbe, parasite or virus in culture. As to conditions: Burkholderia pseudomallei, BP82, read-out: Minimum inhibitory concentration, B. pseudomallei Bp82.
The subject of experiment [3] is E. coli AG100A. The experiment can be described thus: Broth microdilution MIC in CAMHB. As to conditions: Escherichia coli, read-out: MIC E. coli AG100A.
Experiment [4] has as its system E. coli 901C. The experiment can be described thus: microbe, parasite or virus in culture. Conditions: Escherichia coli, read-out: MIC E. coli 901C.
In experiment [5] the test system is P. aeruginosa ATCC 27853. As to the kind of experiment: microbe, parasite or virus in culture. Conditions: Pseudomonas aeruginosa, ATCC27853, read-out: MIC P. aeruginosa ATCC 27853.
In experiment [6] the test system is K. pneumoniae UMM. As to the kind of experiment: microbe, parasite or virus in culture. As to conditions: Klebsiella pneumoniae, read-out: MIC K. pneumoniae UMM.
For experiment [7], the system named is E. coli AG100. The experiment can be described thus: microbe, parasite or virus in culture. As to conditions: Escherichia coli, AG100, read-out: MIC E. coli AG100.
Experiment [8] concerns P. aeruginosa ATCC 35151. As to the kind of experiment: microbe, parasite or virus in culture. As to conditions: Pseudomonas aeruginosa, ATCC35151, read-out: MIC P. aeruginosa ATCC 35151.
The subject of experiment [9] is E. coli ATCC 25922. The experiment can be described thus: microbe, parasite or virus in culture. As to conditions: Escherichia coli, ATCC25922, read-out: MIC E. coli 25922.
Experiment [10] deals with E. coli D22. The experiment can be described thus: microbe, parasite or virus in culture. As to conditions: Escherichia coli, D22, read-out: MIC E. coli D22.
Experiment [11] concerns A. baumannii ATCC 19606. As to the kind of experiment: microbe, parasite or virus in culture. Conditions: Acinetobacter baumannii, ATCC19606, read-out: MIC, A. baumannii ATCC 19606.
The test system of experiment [12] is P. aeruginosa (ΔmexAB-oprM). As to the kind of experiment: Broth microdilution MIC in CAMHB. Conditions: Pseudomonas aeruginosa; read-out: MIC P. aeruginosa ΔmexAB-oprM. (In general: Broth dilution looks for growth in wells or tubes with falling amounts of substance.)
Experiment [13] concerns K. pneumoniae 848844. As to the kind of experiment: microbe, parasite or virus in culture. As to conditions: Klebsiella pneumoniae, 848844, read-out: MIC K. pneumoniae 848844.
In experiment [14] the test system is K. pneumoniae SI-117. As to the kind of experiment: microbe, parasite or virus in culture. As to conditions: Klebsiella pneumoniae, SI117, read-out: MIC K. pneumoniae SI-117.

Converted amounts (≈) assume the structure as drawn. Bounds are passed on as bounds.

Results on 14 compounds are retold here after patent US20240270762A1, “PENICILLIN-BINDING PROTEIN INHIBITORS” (priority 2021, published 2024).

Turning to `O=C(NCCCN1CCN(C(=O)NC(C(=O)N[C@H]2Cc3ccc(F)c(C(=O)O)c3OB2O)c2cc(F)c(O)c(O)c2Cl)C(=O)C1=O)c1nccs1` (stereo partly drawn) [Example 211, (3R)-3-(2-(2-chloro-5-fluoro-3,4-dihydroxyphenyl)-2-(2,3-dioxo-4-(3-(thiazole-2-carboxamido)propyl)piperazine-1-carboxamido)acetamido)-7-fluoro-2-hydroxy-3,4-dihydro-2H-benzo[e][1,2]oxaborinine-8-carboxylic acid], the MIC in experiment [1] and in experiment [2] was under 1 µg/mL each time.
Turning to `O=C(NCCCN1CCN(C(=O)NC(C(=O)N[C@H]2Cc3ccc(F)c(C(=O)O)c3OB2O)c2cc(F)c(O)c(O)c2Cl)C1=O)c1ccncc1` (stereo partly drawn) [Example 256, (3R)-3-(2-(2-chloro-5-fluoro-3,4-dihydroxyphenyl)-2-(3-(3-(isonicotinamido)propyl)-2-oxoimidazolidine-1-carboxamido)acetamido)-7-fluoro-2-hydroxy-3,4-dihydro-2H-benzo[e][1,2]oxaborinine-8-carboxylic acid], the MIC in [1] is 2 to 4 µg/mL (≈ 2.79 to 5.58 µM); in experiment [2], under 1 µg/mL.
The corresponding values for `O=C(NCCS(=O)(=O)N1CCN(C(=O)N[C@@H](C(=O)N[C@H]2Cc3ccc(F)c(C(=O)O)c3OB2O)c2cc(F)c(O)c(O)c2Cl)C1=O)c1nccs1` [Example 264, (R)-3-((R)-2-(2-chloro-5-fluoro-3,4-dihydroxyphenyl)-2-(2-oxo-3-((2-(thiazole-2-carboxamido)ethyl)sulfonyl)imidazolidine-1-carboxamido)acetamido)-7-fluoro-2-hydroxy-3,4-dihydro-2H-benzo[e][1,2]oxaborinine-8-carboxylic acid] are under 1 µg/mL and under 1 µg/mL.
For `O=C(NCCN1CCN(C(=O)N[C@@H](C(=O)N[C@H]2Cc3ccc(F)c(C(=O)O)c3OB2O)c2cc(F)c(O)c(O)c2Cl)C(=O)C1=O)Nc1ccncc1` [Example 221, (R)-3-((R)-2-(2-chloro-5-fluoro-3,4-dihydroxyphenyl)-2-(2,3-dioxo-4-(2-(3-(pyridin-4-yl)ureido)ethyl)piperazine-1-carboxamido)acetamido)-7-fluoro-2-hydroxy-3,4-dihydro-2H-benzo[e][1,2]oxaborinine-8-carboxylic acid], in that order: under 1 µg/mL and under 1 µg/mL.
For the compound `O=C(O)c1cccc2c1OB(O)[C@@H](NC(=O)[C@@H](NC(=O)c1cnc3n(c1=O)CCS3)c1ccc(P(=O)(O)O)cc1)C2` (single isomer, unassigned) [Example 196], the MIC is over 128 µg/mL in experiment [3]; 32 to 64 µg/mL (≈ 53.3 to 107 µM) in experiment [4]; over 128 µg/mL in experiment [5]; over 128 µg/mL in experiment [6]; over 128 µg/mL in experiment [7]; 8 to 16 µg/mL (≈ 13.3 to 26.7 µM) in [8]. Moreover, the MIC in [9], in experiment [10], in experiment [11], in experiment [12], in [13] and in experiment [14] was over 128 µg/mL throughout.
Consider `CN(CCN1CCN(C(=O)N[C@@H](C(=O)N[C@H]2Cc3ccc(F)c(C(=O)O)c3OB2O)c2cc(F)c(O)c(O)c2Cl)C(=O)C1=O)Cc1cncc(O)c1` [Example 208, (R)-3-((R)-2-(2-chloro-5-fluoro-3,4-dihydroxyphenyl)-2-(4-(2-(((5-hydroxypyridin-3-yl)methyl)(methyl)amino)ethyl)-2,3-dioxopiperazine-1-carboxamido)acetamido)-7-fluoro-2-hydroxy-3,4-dihydro-2H-benzo[e][1,2]oxaborinine-8-carboxylic acid], for which the MIC in [1] and in [2] was under 1 µg/mL throughout.
As to `O=C(NCCCN1CCN(C(=O)NC(C(=O)N[C@H]2Cc3ccc(F)c(C(=O)O)c3OB2O)c2cc(F)c(O)c(O)c2Cl)C(=O)C1=O)Nc1cccnc1` (stereo partly drawn) [Example 213, (3R)-3-(2-(2-chloro-5-fluoro-3,4-dihydroxyphenyl)-2-(2,3-dioxo-4-(3-(3-(pyridin-3-yl)ureido)propyl)piperazine-1-carboxamido)acetamido)-7-fluoro-2-hydroxy-3,4-dihydro-2H-benzo[e][1,2]oxaborinine-8-carboxylic acid], the figures for the MIC in experiment [1] and in [2] were 2 to 4 µg/mL (≈ 2.63 to 5.26 µM) and under 1 µg/mL, respectively.
`O=C(NCCCN1CCN(C(=O)NC(C(=O)N[C@H]2Cc3ccc(F)c(C(=O)O)c3OB2O)c2cc(F)c(O)c(O)c2Cl)C1=O)c1nccs1` (stereo partly drawn) [Example 257, (3R)-3-(2-(2-chloro-5-fluoro-3,4-dihydroxyphenyl)-2-(2-oxo-3-(3-(thiazole-2-carboxamido)propyl)imidazolidine-1-carboxamido)acetamido)-7-fluoro-2-hydroxy-3,4-dihydro-2H-benzo[e][1,2]oxaborinine-8-carboxylic acid]: the values for the MIC in [1] and in experiment [2] were 2 to 4 µg/mL (≈ 2.77 to 5.53 µM) and under 1 µg/mL, respectively.
The corresponding values for `O=C(NCCN1CCN(C(=O)NC(C(=O)N[C@H]2Cc3ccc(F)c(C(=O)O)c3OB2O)c2cc(F)c(O)c(O)c2Cl)C1=O)Nc1cccnc1` (stereo partly drawn) [Example 251, (3R)-3-(2-(2-chloro-5-fluoro-3,4-dihydroxyphenyl)-2-(2-oxo-3-(2-(3-(pyridin-3-yl)ureido)ethyl)imidazolidine-1-carboxamido)acetamido)-7-fluoro-2-hydroxy-3,4-dihydro-2H-benzo[e][1,2]oxaborinine-8-carboxylic acid] are 2 to 4 µg/mL (≈ 2.79 to 5.57 µM) and under 1 µg/mL.
The corresponding values for `O=C(O)c1c(F)ccc2c1OB(O)[C@@H](NC(=O)C(NC(=O)N1CCN(S(=O)(=O)CCNC(=O)[C@@H]3CCCN3)C1=O)c1cc(F)c(O)c(O)c1Cl)C2` (stereo partly drawn) [Example 265, (3R)-3-(2-(2-chloro-5-fluoro-3,4-dihydroxyphenyl)-2-(2-oxo-3-((2-((S)-pyrrolidine-2-carboxamido)ethyl)sulfonyl)imidazolidine-1-carboxamido)acetamido)-7-fluoro-2-hydroxy-3,4-dihydro-2H-benzo[e][1,2]oxaborinine-8-carboxylic acid] are 2 to 4 µg/mL (≈ 2.64 to 5.27 µM) and under 1 µg/mL.
`O=C(O)c1c(F)ccc2c1OB(O)[C@@H](NC(=O)[C@H](NC(=O)N1CCN(CCNC(=O)[C@@H]3CCCN3)C(=O)C1=O)c1cc(F)c(O)c(O)c1Cl)C2` [Example 229, (R)-3-((R)-2-(2-chloro-5-fluoro-3,4-dihydroxyphenyl)-2-(2,3-dioxo-4-(2-((S)-pyrrolidine-2-carboxamido)ethyl)piperazine-1-carboxamido)acetamido)-7-fluoro-2-hydroxy-3,4-dihydro-2H-benzo[e][1,2]oxaborinine-8-carboxylic acid]: the MIC is 2 to 4 µg/mL (≈ 2.77 to 5.53 µM) in experiment [1] and under 1 µg/mL in [2].
`CCN1CCN(C(=O)NC(C(=O)N[C@H]2Cc3cccc(C(=O)O)c3OB2O)c2ccc(P(=O)(O)O)c(F)c2O)C(=O)C1=O` (stereo partly drawn) [Example 198, (3R)-3-(2-(4-ethyl-2,3-dioxopiperazine-1-carboxamido)-2-(3-fluoro-2-hydroxy-4-phosphonophenyl)acetamido)-2-hydroxy-3,4-dihydro-2H-benzo[e][1,2]oxaborinine-8-carboxylic acid]: the MIC in experiment [3] is 32 to 64 µg/mL (≈ 51.4 to 103 µM); in [4], under 1 µg/mL; in [5], over 128 µg/mL; in experiment [6], 32 to 64 µg/mL (≈ 51.4 to 103 µM); in experiment [7] it was over 128 µg/mL; in experiment [8], 8 to 16 µg/mL (≈ 12.9 to 25.7 µM). The MIC in [9] is over 128 µg/mL; in experiment [10], 8 to 16 µg/mL (≈ 12.9 to 25.7 µM); in experiment [11], 32 to 64 µg/mL (≈ 51.4 to 103 µM); in experiment [12] it was over 128 µg/mL; in experiment [13] it was over 128 µg/mL; in experiment [14], over 128 µg/mL.
For `O=C(NCCCN1CCN(C(=O)N[C@@H](C(=O)N[C@H]2Cc3ccc(F)c(C(=O)O)c3OB2O)c2cc(F)c(O)c(O)c2Cl)C(=O)C1=O)c1cccnc1` [Example 210, (R)-3-((R)-2-(2-chloro-5-fluoro-3,4-dihydroxyphenyl)-2-(4-(3-(nicotinamido)propyl)-2,3-dioxopiperazine-1-carboxamido)acetamido)-7-fluoro-2-hydroxy-3,4-dihydro-2H-benzo[e][1,2]oxaborinine-8-carboxylic acid], the MIC in experiment [1] and in [2] was under 1 µg/mL in each case.
`O=C(O)c1cccc2c1OB(O)[C@@H](NC(=O)[C@H](NC(=O)c1cnc3n(c1=O)CCS3)c1ccc(P(=O)(O)O)cc1)C2` (single isomer, unassigned) [Example 197]: the MIC in experiment [3] is over 128 µg/mL; in [4] it was 2 to 4 µg/mL (≈ 3.33 to 6.66 µM); in experiment [5] it was over 128 µg/mL; in experiment [6], over 128 µg/mL; in experiment [7], over 128 µg/mL; in experiment [8] it was under 1 µg/mL. In addition, the MIC is over 128 µg/mL in [9]; 8 to 16 µg/mL (≈ 13.3 to 26.7 µM) in [10]; over 128 µg/mL in experiment [11]; 32 to 64 µg/mL (≈ 53.3 to 107 µM) in [12]; over 128 µg/mL in experiment [13]; over 128 µg/mL in experiment [14].
